Laboratory results reported in patent US10479780B2, “Aminopyrazole derivatives” (Chugai Seiyaku Kabushiki Kaisha, priority 2015, dated 2019).
pIC50: −log10 of the molar value. Read-outs that look alike come from different tables or passages of the source.

Legend:
Type in all cases: biochemical
human Yes1 enzyme = biological target: T1, human Yes1 enzyme (Homo sapiens, UniProt P07947); experiment: Yes1 enzyme inhibitory activity (time-resolved fluorometry, biotinylated peptide phosphorylation); settings: read-out: YES_IC50
T1 construct: made in house
Summary of the method: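 Inhibition was expressed against a compound-free control to give IC50, using TR-FRET read-out (Eu-cryptate anti-pTyr antibody, streptavidin-XL665).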

human Src enzyme = biological target: T2, human Src enzyme (Homo sapiens, UniProt P12931); experiment: Src enzyme inhibitory activity (time-resolved fluorometry, biotinylated peptide phosphorylation); settings: read-out: SRC_IC50
T2 construct: purchased Carna Biosciences, Inc. 08-173
Summary of the method: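 Compounds were tested for blocking tyrosine phosphorylation of a biotinylated peptide substrate by recombinant human Src. Phosphorylated product was quantified by time-resolved fluorometry using europium cryptate and XL665 conjugates, and IC50 was calculated against the compound-free control.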

human Lck enzyme = biological target: T3, human Lck enzyme (Homo sapiens, UniProt P06239); experiment: Lck enzyme inhibitory activity (time-resolved fluorometry, biotinylated peptide phosphorylation); settings: read-out: LCK_IC50
T3 construct: purchased Carna Biosciences, Inc. 08-170
Summary of the method: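 Readout pairs a europium cryptate-labelled anti-phosphotyrosine antibody with XL665-streptavidin, measured by time-resolved fluorescence. IC50 derived from percent inhibition against untreated controls.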

[1] = biotinylated peptide phosphorylation

T3 sequence (P06239 whole entry): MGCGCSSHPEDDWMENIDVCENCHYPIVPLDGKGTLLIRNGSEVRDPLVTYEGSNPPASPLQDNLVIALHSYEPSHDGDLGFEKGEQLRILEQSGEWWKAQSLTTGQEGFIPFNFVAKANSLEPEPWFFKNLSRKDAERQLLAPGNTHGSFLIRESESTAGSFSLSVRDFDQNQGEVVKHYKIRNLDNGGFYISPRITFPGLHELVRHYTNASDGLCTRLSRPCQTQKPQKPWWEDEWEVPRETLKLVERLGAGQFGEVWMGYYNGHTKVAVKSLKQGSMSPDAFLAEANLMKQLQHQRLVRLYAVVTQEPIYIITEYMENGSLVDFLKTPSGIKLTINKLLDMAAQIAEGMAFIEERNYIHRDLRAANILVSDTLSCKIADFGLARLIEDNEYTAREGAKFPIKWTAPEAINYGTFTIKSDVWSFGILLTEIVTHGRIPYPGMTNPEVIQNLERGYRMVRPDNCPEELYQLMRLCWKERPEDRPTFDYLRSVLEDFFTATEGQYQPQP
T2 sequence (P12931 whole entry): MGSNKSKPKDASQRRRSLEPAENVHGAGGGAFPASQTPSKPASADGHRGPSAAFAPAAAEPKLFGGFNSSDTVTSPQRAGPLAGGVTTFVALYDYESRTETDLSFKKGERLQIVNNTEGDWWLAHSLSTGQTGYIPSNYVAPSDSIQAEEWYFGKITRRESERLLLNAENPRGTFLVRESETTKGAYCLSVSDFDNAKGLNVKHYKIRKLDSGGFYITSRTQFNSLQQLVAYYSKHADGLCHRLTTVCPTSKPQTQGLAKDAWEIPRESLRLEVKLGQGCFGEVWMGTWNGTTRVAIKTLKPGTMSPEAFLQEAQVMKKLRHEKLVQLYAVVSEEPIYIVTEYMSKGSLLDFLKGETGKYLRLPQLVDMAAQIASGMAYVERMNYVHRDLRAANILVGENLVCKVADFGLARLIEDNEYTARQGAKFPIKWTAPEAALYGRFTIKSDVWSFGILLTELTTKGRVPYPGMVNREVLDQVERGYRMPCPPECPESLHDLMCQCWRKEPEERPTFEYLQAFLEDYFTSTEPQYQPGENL
T1 sequence (P07947 whole entry): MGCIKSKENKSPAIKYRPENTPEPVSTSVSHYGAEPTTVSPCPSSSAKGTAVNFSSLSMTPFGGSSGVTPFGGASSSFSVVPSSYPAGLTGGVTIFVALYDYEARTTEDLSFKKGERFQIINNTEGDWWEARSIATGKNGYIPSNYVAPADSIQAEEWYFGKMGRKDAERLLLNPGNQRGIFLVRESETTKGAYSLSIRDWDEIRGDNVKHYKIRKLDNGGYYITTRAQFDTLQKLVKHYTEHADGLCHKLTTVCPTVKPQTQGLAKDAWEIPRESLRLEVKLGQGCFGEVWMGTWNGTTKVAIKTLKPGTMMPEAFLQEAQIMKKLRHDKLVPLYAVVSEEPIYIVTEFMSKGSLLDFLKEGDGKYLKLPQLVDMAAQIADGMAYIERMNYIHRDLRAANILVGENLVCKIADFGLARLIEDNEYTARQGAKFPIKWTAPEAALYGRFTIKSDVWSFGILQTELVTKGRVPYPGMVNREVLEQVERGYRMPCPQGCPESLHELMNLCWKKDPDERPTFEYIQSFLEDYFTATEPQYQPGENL

Row | pIC50 (human Yes1 enzyme) | pIC50 (human Src enzyme) | pIC50 (human Lck enzyme) | pIC50 (human Yes1 enzyme; [1]) | pIC50 (human Src enzyme; [1]) | pIC50 (human Lck enzyme; [1]) | SMILES
1 | 8.62 | 7.02 | 7.70 |  |  |  | Cc1cc(Oc2c(F)cccc2F)ncc1-n1ncc(C(=O)c2cc3cc(F)c(N4CC(C)(C)NS4(=O)=O)cc3[nH]2)c1N [Example 5-1-398, [5-amino-1-[6-(2,6-difluorophenoxy)-4-methylpyridin-3-yl]pyrazol-4-yl]-[6-(4,4-dimethyl-1,1-dioxo-1,2,5-thiadiazolidin-2-yl)-5-fluoro-1H-indol-2-yl]methanone]
2 |  |  |  | 8.24 | 6.60 | 7.28 | Cc1cc(Oc2c(F)cccc2F)ncc1-n1ncc(C(=O)c2cc3cc(F)c(N4CC5(CCCC5)NS4(=O)=O)cc3[nH]2)c1N [Example 5-1-399, [5-amino-1-[6-(2,6-difluorophenoxy)-4-methylpyridin-3-yl]pyrazol-4-yl]-[6-(2,2-dioxo-2λ6-thia-1,3-diazaspiro[4.4]nonan-3-yl)-5-fluoro-1H-indol-2-yl]methanone]
3 |  |  |  | 8.68 | 7.12 | 7.85 | Cc1cc(Oc2c(F)cccc2F)ncc1-n1ncc(C(=O)c2cc3cc(F)c(N4CC5(CCOCC5)NS4(=O)=O)cc3[nH]2)c1N [Example 5-1-400, [5-amino-1-[6-(2,6-difluorophenoxy)-4-methylpyridin-3-yl]pyrazol-4-yl]-[6-(2,2-dioxo-8-oxa-2λ6-thia-13-diazaspiro[4.5]decan-3-yl)-5-fluoro-1H-indol-2-yl]methanone]
4 |  |  |  | 8.60 | 6.85 | 7.39 | Cc1cc(Oc2ccccc2F)ncc1-n1ncc(C(=O)c2cc3cc(OC(F)F)c(NS(=O)(=O)C4CCOCC4)cc3[nH]2)c1N [Example 5-1-401, N-[2-[5-amino-1-[6-(2-fluorophenoxy)-4-methylpyridin-3-yl]pyrazole-4-carbonyl]-5-(difluoromethoxy)-1H-indol-6-yl]oxane-4-sulfonamide]
5 |  |  |  | 8.74 | 7.20 | 8.09 | Cc1cc(Oc2ccccc2F)ncc1-n1ncc(C(=O)c2cc3cc(OC(F)F)c(N4C(=O)NC(C)(C)C4=O)cc3[nH]2)c1N [Example 5-1-402, 3-[2-[5-amino-1-[6-(2-fluorophenoxy)-4-methylpyridin-3-yl]pyrazole-4-carbonyl]-5-(difluoromethoxy)-1H-indol-6-yl]-5,5-dimethylimidazolidine-2,4-dione]
6 |  |  |  | 9.01 | 7.06 | 8.07 | Cc1cc(Oc2ccccc2F)ccc1-n1ncc(C(=O)c2cc3cc(F)c(N4CC5(CCOCC5)NS4(=O)=O)cc3[nH]2)c1N [Example 5-1-403, [5-amino-1-[4-(2-fluorophenoxy)-2-methylphenyl]pyrazol-4-yl]-[6-(2,2-dioxo-8-oxa-2λ6-thia-1.3-diazaspiro[4.5]decan-3-yl)-5-fluoro-1H-indol-2-yl]methanone]
7 |  |  |  | 8.77 | 7.32 | 8.59 | Cc1cc2cc(C(=O)c3cnn(-c4cnc(Oc5c(F)cccc5F)cc4C)c3N)[nH]c2cc1N1C(=O)NC2(COC2)C1=O [Example 5-1-404, 7-[2-[5-amino-1-[6-(2,6-difluorophenoxy)-4-methylpyridin-3-yl]pyrazole-4-carbonyl]-5-methyl-1H-indol-6-yl]-2-oxa-5,7-diazaspiro[3.4] octane-6,8-dione]
8 |  |  |  | 8.57 | 7.18 | 8.49 | Cc1cc(Oc2c(F)cccc2F)ncc1-n1ncc(C(=O)c2cc3cc(F)c(N4C(=O)CNC4=O)cc3[nH]2)c1N [Example 5-1-405, 3-[2-[5-amino-1-[6-(2,6-difluorophenoxy)-4-methylpyridin-3-yl]pyrazole-4-carbonyl]-5-fluoro-1H-indol-6-yl]imidazolidine-2,4-dione]
9 |  |  |  | 8.66 | 7.12 | 8.51 | Cc1cc(Oc2c(F)cccc2F)ncc1-n1ncc(C(=O)c2cc3cc(F)c(N4C(=O)N[C@@H](C)C4=O)cc3[nH]2)c1N [Example 5-1-406, (5S)-3-[2-[5-amino-1-[6-(2,6-difluorophenoxy)-4-methylpyridin-3-yl]pyrazole-4-carbonyl]-5-fluoro-1H-indol-6-yl]-5-methylimidazolidine-2,4-dione]
10 |  |  |  | 8.66 | 7.13 | 8.46 | Cc1cc(Oc2c(F)cccc2F)ncc1-n1ncc(C(=O)c2cc3cc(F)c(N4C(=O)N[C@@H](CO)C4=O)cc3[nH]2)c1N [Example 5-1-407, (5S)-3-[2-[5-amino-1-[6-(2,6-difluorophenoxy)-4-methylpyridin-3-yl]pyrazole-4-carbonyl]-5-fluoro-1H-indol-6-yl]-5-(hydroxymethyl) imidazolidine-2,4-dione]
11 |  |  |  | 8.92 | 7.37 | 8.21 | Cc1cc2cc(C(=O)c3cnn(-c4ccc(Oc5ccccc5F)cc4C)c3N)[nH]c2cc1N1C(=O)NC2(CCOCC2)C1=O [Example 5-1-408, 3-[2-[5-amino-1-[4-(2-fluorophenoxy)-2-methylphenyl]pyrazole-4-carbonyl]-5-methyl-1H-indol-6-yl]-8-oxa-1,3-diazaspiro[4.5] decane-2,4-dione]
12 |  |  |  | 8.51 | 6.80 | 7.70 | Cc1cc2cc(C(=O)c3cnn(-c4ccc(Oc5ccccc5F)cc4C)c3N)[nH]c2cc1N1C(=O)NC2(CCCCC2)C1=O [Example 5-1-409, 3-[2-[5-amino-1-[4-(2-fluorophenoxy)-2-methylphenyl]pyrazole-4-carbonyl]-5-methyl-1H-indol-6-yl]-1,3-diazaspiro[4.5]decane-2,4-dione]
13 |  |  |  | 9.25 | 7.66 | 8.54 | Cc1cc2cc(C(=O)c3cnn(-c4ccc(Oc5ccccc5F)cc4C)c3N)[nH]c2cc1N1C(=O)NC2(COC2)C1=O [Example 5-1-410, 7-[2-[5-amino-1-[4-(2-fluorophenoxy)-2-methylphenyl]pyrazole-4-carbonyl]-5-methyl-1H-indol-6-yl]-2-oxa-5,7-diazaspiro[3.4] octane-6,8-dione]
14 |  |  |  | 9.14 | 7.43 | 8.38 | Cc1cc(Oc2ccccc2F)ccc1-n1ncc(C(=O)c2cc3cc(F)c(N4C(=O)N[C@@H](C)C4=O)cc3[nH]2)c1N [Example 5-1-411, (5S)-3-[2-[5-amino-1-[4-(2-fluorophenoxy)-2-methylphenyl]pyrazole-4-carbonyl]-5-fluoro-1H-indol-6-yl]-5-methylimidazolidine-2,4-dione]
15 |  |  |  | 8.52 | 7.00 | 7.77 | Cc1cc(Oc2ccccc2F)ccc1-n1ncc(C(=O)c2cc3cc(F)c(N4C(=O)NC(C)(C(F)(F)F)C4=O)cc3[nH]2)c1N (stereo not drawn) [Example 5-1-412, 3-[2-[5-amino-1-[4-(2-fluorophenoxy)-2-methylphenyl]pyrazole-4-carbonyl]-5-fluoro-1H-indol-6-yl]-5-methyl-5-(trifluoromethyl) imidazolidine-2,4-dione]
16 |  |  |  | 8.82 | 7.05 | 7.77 | Cc1cc(Oc2ccccc2F)ncc1-n1ncc(C(=O)c2cc3cc(F)c(N4CC5(CCOCC5)NS4(=O)=O)cc3[nH]2)c1N [Example 5-1-413, [5-amino-1-[6-(2-fluorophenoxy)-4-methylpyridin-3-yl]pyrazol-4-yl]-[6-(2,2-dioxo-8-oxa-2λ6-thia-1,3-diazaspiro[4.5]decan-3-yl)-5-fluoro-1H-indol-2-yl]methanone]
17 |  |  |  | 8.28 | 6.48 | 6.96 | COc1cccc(S(=O)(=O)Nc2cc3[nH]c(C(=O)c4cnn(-c5ccc(Oc6ccccc6F)cc5C)c4N)cc3cc2OCC(F)F)c1 [Example 5-1-414, N-[2-[5-amino-1-[4-(2-fluorophenoxy)-2-methylphenyl]pyrazole-4-carbonyl]-5-(2,2-difluoroethoxy)-1H-indol-6-yl]-3-methoxybenzenesulfonamide]
18 |  |  |  | 8.23 | 6.55 | 6.96 | Cc1cc(Oc2ccccc2F)ccc1-n1ncc(C(=O)c2cc3cc(OCC(F)F)c(NS(=O)(=O)c4cc(F)cc(F)c4)cc3[nH]2)c1N [Example 5-1-415, N-[2-[5-amino-1-[4-(2-fluorophenoxy)-2-methylphenyl]pyrazole-4-carbonyl]-5-(2,2-difluoroethoxy)-1H-indol-6-yl]-3,5-difluorobenzenesulfonamide]
19 |  |  |  | 8.47 | 6.68 | 7.24 | Cc1cc(Oc2ccccc2F)ccc1-n1ncc(C(=O)c2cc3cc(OCC(F)F)c(NS(=O)(=O)c4cccc(C#N)c4)cc3[nH]2)c1N [Example 5-1-416, N-[2-[5-amino-1-[4-(2-fluorophenoxy)-2-methylphenyl]pyrazole-4-carbonyl]-5-(2,2-difluoroethoxy)-1H-indol-6-yl]-3-cyanobenzenesulfonamide]
20 |  |  |  | 8.24 | 6.62 | 6.89 | Cc1cc(Oc2ccccc2F)ccc1-n1ncc(C(=O)c2cc3cc(OCC(F)F)c(NS(=O)(=O)c4cccc(Cl)c4)cc3[nH]2)c1N [Example 5-1-417, N-[2-[5-amino-1-[4-(2-fluorophenoxy)-2-methylphenyl]pyrazole-4-carbonyl]-5-(2,2-difluoroethoxy)-1H-indol-6-yl]-3-chlorobenzenesulfonamide]
21 |  |  |  | 8.85 | 7.11 | 7.68 | Cc1cc(Oc2ccccc2F)ccc1-n1ncc(C(=O)c2cc3cc(OCC(F)F)c(NS(=O)(=O)c4cccnc4)cc3[nH]2)c1N [Example 5-1-418, N-[2-[5-amino-1-[4-(2-fluorophenoxy)-2-methylphenyl]pyrazole-4-carbonyl]-5-(2,2-difluoroethoxy)-1H-indol-6-yl]pyridine-3-sulfonamide]
